Legend:
HPK1 protein = molecular target: T1, HPK1 protein (Homo sapiens, UniProt Q92918); experiment: HPK1 enzyme inhibition assay (ADP-Glo); format: biochemical; details: MBP substrate, ATP, ADP-Glo readout
T1 construct: purchased Signal Chem M23-11G-10
T1 sequence (Q92918 1-346 limits assumed): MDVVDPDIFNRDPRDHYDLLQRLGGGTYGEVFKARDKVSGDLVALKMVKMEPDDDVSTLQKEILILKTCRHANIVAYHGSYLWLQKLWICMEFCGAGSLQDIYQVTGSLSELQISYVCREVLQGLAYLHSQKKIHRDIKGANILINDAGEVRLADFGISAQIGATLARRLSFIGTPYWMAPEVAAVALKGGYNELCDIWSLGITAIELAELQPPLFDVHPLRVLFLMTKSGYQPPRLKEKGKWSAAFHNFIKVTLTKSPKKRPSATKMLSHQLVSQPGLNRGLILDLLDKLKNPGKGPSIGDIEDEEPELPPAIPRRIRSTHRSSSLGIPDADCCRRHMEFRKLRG
Experimental: The compound was dissolved in 100% DMSO at the concentration of 10 mM. The HPK1 protein was purchased from Signal Chem (M23-11G-10). 2.5 μL per well of 2×HPK1 protein was added to assay plate containing the test compound, centrifuged at 1500 rpm for 1 minute, and then incubated at 25° C. for 60 minutes. MBP protein was purchased from Signal Chem (M42-51N) and ATP was purchased from Promega (V9102). The two were added 2.5 μL per well mixture of 2×MBP (0.2 ug/ul) and ATP (20 μM), centrifuged at 1500 rpm for 1 minute, then incubated at 25° C. for 60 minutes. Then added 5 μL of ADP-Glo from Promega (V9102) to the assay plate and depleted the unconsumed ATP for 60 minutes. Then centrifuged at 1500 rpm for 1 minute and incubated at 25° C. for 60 minutes. Finally, 10 μL of the kinase assay reagent from Promega (V9102) was added to the assay plate to convert ADP to ATP, centrifuged at 1500 rpm for 1 minute, incubate at 25° C. for 40 minutes. After 40 minutes incubation, the […] was determined. Based on the results, the IC50 value of the compound was calculated.

HPK1 p-SLP-76 = HPK1 p-SLP-76 inhibition assay in human PBMC (HTRF); format: cell-based; details: 6 h compound, anti-CD3 stimulation 20 min
Experimental: Human PBMC were purchased from OriCells (FPB004F-C). Before compound treatment, PBMC were starved in PRMI-1640 medium supplemented with 0.5% FBS overnight. The cell density was adjusted to 1*10^7 cells/mL in assay medium (RPMI-1640 no phenol red with 0.5% FBS) and 16 μL cell suspension was transferred per well to a 384-well plate (Corning #3765). 6× solution of test compound was prepared in assay medium and 4 μL was added per well to the 384-well plate. The plate was then incubated at 37° C., 5% CO2 for 6 h. PBMC in 384-well plate were stimulated with anti-CD3 (BD Biosciences #555329, final conc. is 10 ug/mL) for 20 min at 37° C., 5% CO2 by adding 4 μL 6× antibody solution per well. Phospho-SLP76 HTRF kit was purchased from Cisbio (63ADK076PEH). 8 μL 4× Lysis Buffer was added to 384-well plate after anti-CD3 stimulation. The plate was centrifuged at 1,000 rpm for 1 min, shaken at 250 rpm for 60 min and centrifuged again at 1,000 rpm for 5 min. Afterwards the cell lysates were transferred to the assay plate (Greiner #784075) with 16 μL per well. 4 μL detection antibody mix per well prepared in Detection Buffer was added to the assay plate, followed by centrifugation at 1,000 rpm for 1 min and incubation at 25° C. overnight.

Compound	IC50 (HPK1 protein) [nM]	IC50 (HPK1 p-SLP-76) [nM]
CCc1c[nH]c2ncc(-c3cccc(N4CCN(C(=O)CCOCCOCCOc5cccc6c5CN(C5CCC(=O)NC5=O)C6=O)CC4=O)c3)c(Cl)c12 (stereo not shown) [Example 12, 3-(4-(2-(2-(3-(4-(3-(4-chloro-3-ethyl-1H-pyrrolo[2,3-b]pyridin-5-yl)phenyl)-3-oxopiperazin-1-yl)-3-oxopropoxy)ethoxy)ethoxy)-1-oxoisoindolin-2-yl)piperidine-2,6-dione]	10 to 100	3000 to 10000
O=C1CCC(N2C(=O)c3ccc(C4CCN(CCCN5CCN(c6cccc(-c7cnc8[nH]cc(C9CC9)c8c7Cl)n6)C(=O)C5)CC4)cc3C2=O)C(=O)N1 (stereo not shown) [Example 84, 5-(1-(3-(4-(6-(4-chloro-3-cyclopropyl-1H-pyrrolo[2,3-b]pyridin-5-yl)pyridin-2-yl)-3-oxopiperazin-1-yl)propyl)piperidin-4-yl)-2-(2,6-dioxopiperidin-3-yl)isoindoline-1,3-dione]	≤ 10	≤ 300
O=C1CCC(N2C(=O)c3ccc(N4CC(CCOC(=O)N5CCN(c6cccc(-c7cnc8[nH]cc(CC(F)F)c8c7Cl)c6)C(=O)C5)C4)cc3C2=O)C(=O)N1 (stereo not shown) [Example 91]	10 to 100	> 10000
O=C1CCC(N2C(=O)c3ccc(N4CCN(CCCS(=O)(=O)N5CCN(c6cccc(-c7cnc8[nH]cc(CC(F)F)c8c7Cl)c6)C(=O)C5)CC4)cc3C2=O)C(=O)N1 (stereo not shown) [Example 106]	≤ 10	300 to 3000
O=C1CCC(N2Cc3cc(N4CCN(CCCN5CCN(c6cccc(-c7cnc8[nH]cc(C9CC9)c8c7Cl)n6)C(=O)C5)CC4)ccc3C2=O)C(=O)N1 (stereo not shown) [Example 81, 3-(5-(4-(3-(4-(6-(4-chloro-3-cyclopropyl-1H-pyrrolo[2,3-b]pyridin-5-yl)pyridin-2-yl)-3-oxopiperazin-1-yl)propyl)piperazin-1-yl)-1-oxoisoindolin-2-yl)piperidine-2,6-dione]	≤ 10	≤ 300
O=C1CCC(c2ccc(C3CCN(CCCCN4CCN(c5cccc(-c6cnc7[nH]cc(C8CC8)c7c6Cl)c5)C(=O)C4)CC3)cc2)C(=O)N1 (stereo not shown) [Example 87]	≤ 10	≤ 300
O=C1CCC(N2Cc3cc(C4=CCN(CCCN5CCN(c6cccc(-c7cnc8[nH]cc(C9CC9)c8c7Cl)n6)C(=O)C5)CC4)ccc3C2=O)C(=O)N1 (stereo not shown) [Example 83]	≤ 10	≤ 300
O=C1CCC(Nc2ccc(N3CCN(CCCS(=O)(=O)N4CCN(c5cccc(-c6cnc7[nH]cc(C8CC8)c7c6Cl)c5)C(=O)C4)CC3)c(F)c2)C(=O)N1 (stereo not shown) [Example 105, 3-((4-(4-(3-((4-(3-(4-chloro-3-cyclopropyl-1H-pyrrolo[2,3-b]pyridin-5-yl)phenyl)-3-oxopiperazin-1-yl)sulfonyl)propyl)piperazin-1-yl)-3-fluorophenyl)amino)piperidine-2,6-dione]	≤ 10	≤ 300
CCc1c[nH]c2ncc(-c3cccc(N4CCN(C(=O)CCCCCCCOc5cccc6c5CN(C5CCC(=O)NC5=O)C6=O)CC4=O)c3)c(Cl)c12 (stereo not shown) [Example 1]	10 to 100	3000 to 10000
O=C1CCC(N2C(=O)c3ccc(C4=CCN(CCCN5CCN(c6cccc(-c7cnc8[nH]cc(C9CC9)c8c7Cl)c6)C(=O)C5)CC4)cc3C2=O)C(=O)N1 (stereo not shown) [Example 70, 5-(1-(3-(4-(3-(4-chloro-3-cyclopropyl-1H-pyrrolo[2,3-b]pyridin-5-yl)phenyl)-3-oxopiperazin-1-yl)propyl)-1,2,3,6-tetrahydropyridin-4-yl)-2-(2,6-dioxopiperidin-3-yl)isoindoline-1,3-dione]	10 to 100	300 to 3000
O=C1CCC(Nc2ccc(C3CCN(CCCS(=O)(=O)N4CCN(c5cccc(-c6cnc7[nH]cc(C8CC8)c7c6Cl)c5)C(=O)C4)CC3)cc2)C(=O)N1 (stereo not shown) [Example 104]	≤ 10	≤ 300
O=C1CCC(N2Cc3cc(C4CCN(CCCN5CCN(c6cccc(-c7cnc8[nH]cc(C9CC9)c8c7Cl)n6)C(=O)C5)CC4)ccc3C2=O)C(=O)N1 (stereo not shown) [Example 82, 3-(5-(1-(3-(4-(6-(4-chloro-3-cyclopropyl-1H-pyrrolo[2,3-b]pyridin-5-yl)pyridin-2-yl)-3-oxopiperazin-1-yl)propyl)piperidin-4-yl)-1-oxoisoindolin-2-yl)piperidine-2,6-dione]	≤ 10	≤ 300

The next lines start with the values.

IC50 (HPK1 protein) [nM]	IC50 (HPK1 p-SLP-76) [nM]	Compound
≤ 10	300 to 3000	O=C1CCC(c2ccc(OC3CCN(CCCN4CCN(c5cccc(-c6cnc7[nH]cc(C8CC8)c7c6Cl)c5)C(=O)C4)CC3)cc2)C(=O)N1 (stereo not shown) [Example 86]
≤ 10	≤ 300	O=C1CCC(N2C(=O)c3ccc(C4CCN(CCCN5CCN(c6cccc(-c7cnc8[nH]cc(C9CC9)c8c7Cl)c6)C(=O)C5)CC4)cc3C2=O)C(=O)N1 (stereo not shown) [Example 71, 5-(1-(3-(4-(3-(4-chloro-3-cyclopropyl-1H-pyrrolo[2,3-b]pyridin-5-yl)phenyl)-3-oxopiperazin-1-yl)propyl)piperidin-4-yl)-2-(2,6-dioxopiperidin-3-yl) isoindoline-1,3-dione]
≤ 10	300 to 3000	O=C1CCC(N2C(=O)c3ccc(C4=CCN(CCCN5CCN(c6cccc(-c7cnc8[nH]cc(C9CC9)c8c7Cl)n6)C(=O)C5)CC4)cc3C2=O)C(=O)N1 (stereo not shown) [Example 85, 5-(1-(3-(4-(6-(4-chloro-3-cyclopropyl-1H-pyrrolo[2,3-b]pyridin-5-yl)pyridin-2-yl)-3-oxopiperazin-1-yl)propyl)-1,2,3,6-tetrahydropyridin-4-yl)-2-(2,6-dioxopiperidin-3-yl)isoindoline-1,3-dione]
≤ 10	≤ 300	O=C1CCC(N2C(=O)c3ccc(N4CCN(CCCN5CCN(c6cccc(-c7cnc8[nH]cc(C9CC9)c8c7Cl)n6)C(=O)C5)CC4)cc3C2=O)C(=O)N1 (stereo not shown) [Example 80, 5-(4-(3-(4-(6-(4-chloro-3-cyclopropyl-1H-pyrrolo[2,3-b]pyridin-5-yl)pyridin-2-yl)-3-oxopiperazin-1-yl)propyl)piperazin-1-yl)-2-(2,6-dioxopiperidin-3-yl)isoindoline-1,3-dione]
≤ 10	300 to 3000	O=C1CCN(c2cnc3cc(C4=CCN(CCCN5CCN(c6cccc(-c7cnc8[nH]cc(C9CC9)c8c7Cl)c6)C(=O)C5)CC4)ccn23)C(=O)N1 [Example 93, 1-(7-(1-(3-(4-(3-(4-chloro-3-cyclopropyl-1H-pyrrolo[2,3-b]pyridin-5-yl)phenyl)-3-oxopiperazin-1-yl)propyl)-1,2,3,6-tetrahydropyridin-4-yl)imidazo[1,2-a]pyridin-3-yl)dihydropyrimidine-2,4 (1H,3H)-dione]

Source: US20240368159A1, “HPK1 DEGRADERS, COMPOSITIONS COMPRISING THE HPK1 DEGRADER, AND METHODS OF USING THE SAME” (BIOFRONT LTD, priority 2021, published 2024)
